Source: patent US11865506B2, “Pyraclostrobin microcapsule based on sodium alginate and preparation method” (ANHUI AGRICULTURAL UNIVERSITY, priority 2022, dated 2024)
Values after ≈ are worked out from the molar mass of the structure shown. Like-named read-outs stand apart in the source and are kept apart here.

How the values were obtained:
[1] = organic solvent; cited from earlier work
[2] = 25° C., cited from earlier work
[3] = system: Fusarium pseudograminearum; experiment: microbe, parasite or virus in culture; type: cell-based
Protocol: By mycelium growth rate method, the fungicidal activity of pyraclostrobin original drug and the prepared pyraclostrobin SA microcapsules against Fusarium pseudograminearum is determined, and the release rule of the microcapsules in the culture medium is determined.
Inclined experiment tube storage method: inoculate the strain of Fusarium pseudograminearum on a PDA plate for activation treatment, place the plate in a constant temperature incubator at 25° C. after sealing, and incubate for 3 days. Pick out the edge bacteria, transfer to a PDA slant experiment tube, and cultivate at a constant temperature at 25° C. until the colonies cover the surface of the slant, then put the experiment tube into a 4° C. refrigerator for storage until use. […]
Activate the Fusarium pseudograminearum on a drug-free PDA plate in advance, after culturing at 25° C. for 3 days, beat the fungus cake along the edge of the colony, pick the fungus cake with an inoculation needle every 0, 4, 8, 12, and 16 days and transfer it reversely to the center of the drug-containing medium; seal and store the culture dish, and place in a constant temperature incubator at 25° C. for cultivation. After each cultivation for 3 days, the diameter of the colony is measured by the cross method, and the average value is used to calculate the antibacterial rate as follows. […]

[4] = Photostability under ultraviolet light; type: physicochemical
Source text: (§1) The cold storage stability, hot storage stability, and photostability are experimented respectively.
Determination of the active ingredient residual concentration of the original drug and microcapsules under the same ultraviolet light conditions, the results are shown in Table 15.

[5] = Cold and hot storage stability; type: physicochemical; conditions: for Stability / decomposition rate on cold storage: stored at 4° C. and −20° C.
Source text: as §1

## CC(C)=O [Acetone]
[1]
  Toxicity: Low

## CCOC(C)=O [Ethyl acetate]
[1]
  Toxicity: Low

## COC(=O)N(OC)c1ccccc1COc1ccn(-c2ccc(Cl)cc2)n1 [Original drug, pyraclostrobin]
[2]; in acetone
  Solubility to original drug: ≥65 g/100 mL
[2]; in ethanol
  Solubility to original drug: ≥10 g/100 mL
[2]; in ethyl acetate
  Solubility to original drug: ≥65 g/100 mL
[2]; in methanol
  Solubility to original drug: ≥10 g/100 mL
[3]
  EC50: 0.097 µg/mL (≈ 0.25 µM)
[4]; Ct = C0 × e^−kt
  Photolysis rate constant: 0.03
[4]; final time of 60 minutes
  Residual concentration of the active ingredient: 1.384 µg/mL
[4]; first-level kinetic equation
  Photolysis half life: 21.01 min
[4]; first-level kinetic equation, read-out: Photolysis half life
  half-life at 9.986 μg/mL: 21 min
[5]; storage at 25° C. for 30 days
  Decomposition rate: 2.2%
[5]; storage at 54° C. for 30 days
  Decomposition rate: 40.25%
[5]
  Stability / decomposition rate on cold storage: better stability
[5]; listed as pyraclostrobin original drug
  Stability / decomposition rate on cold storage: extremely low
